These results are taken from article PMC9720346, “Suppression of amyloid-β fibril growth by drug-engineered polymorph transformation” (The Journal of Biological Chemistry, 2022).

Test [1] addresses T1, Aβ40 fibrils with structure imposed by bexarotene (bexarotene fibrils) (Homo sapiens, UniProt P05067).
T1 construct: host or cells: E. coli BL21(DE3)
Nature of the test: Time-resolved in situ AFM: growth rate of bexarotene fibrils after adding bexarotene. Type of test: biochemical. The following applies: 3 μM Aβ40, 1 μM bexarotene, 27 °C.
Procedure: To prepare samples for AFM growth rate measurements, 2 μl of second-generation normal (or bexarotene) fibrils was added to the fibril growth buffer. Urea (Sigma–Aldrich) was also added to the solution, to a final concentration of 1 M, if needed based on the experiments. The diluted fibril solution then was sonicated (6 W output) for 2 min with 15 s intervals on ice and was kept at 27 °C for at least 15 min to equilibrate the temperature. Then Aβ40 peptides were added to the fibril solution at a desired final concentration, and the total volume of the solution was adjusted to 1 ml.
Multimode atomic force microscope (Nanoscope VIII or IV; Bruker) in tapping mode was used to monitor the growth of fibrils. To collect images, 500 μl of the prepared sample was injected into the AFM liquid cell over freshly cut mica (Ted Pella, Inc) attached to a 15 mm metal disk (Ted Pella, Inc), and to avoid any leakage, an O-ring was inserted firmly to the liquid cell. The temperature in the liquid cell reached equilibrium of 27.0 ± 0.1 °C within 15 min, higher than room temperature (ca. 22 °C), because of heating by the AFM scanner and laser ([69], [70], [71]). Height, amplitude, and phase images were collected in image sizes ranged from 2 μm × 2 μm to 8 μm × 8 μm, and scan rates range between 3 and 3.5 s^−1 in most images. […]

The target in the next test is T2, Aβ40 (Homo sapiens, UniProt P05067).
T2 construct: host or cells: E. coli BL21(DE3)
As to the kind of experiment: Thioflavin T (ThT) fluorescence assay of Aβ40 fibrillization. The following applies: 50 μM Aβ40, bexarotene 17 and 50 μM, 35 μM ThT, 40 mM sodium phosphate pH 7.4, 37 °C, ex 442/em 488 nm, 15 h. The class given is biochemical. The method, then: To monitor the evolution of fibrillization and the overall impact of bexarotene, we employed the fluorescence intensity emitted at 488 nm by the dye thioflavin T (ThT) in the presence of Aβ sheets, which is expected to scale the total amyloid mass ([42]).
The stock solution of ThT was prepared by dissolving ThT (Sigma–Aldrich) in ethanol (Decon Labs) and filtering through […] polyethersulfone syringe filter. […] For control experiment, ammonium acetate solution in a volume equivalent to the peptides volume was added to the growth buffer instead of Aβ40 peptides. […] The ThT fluorescence signal was measured at 37 °C (with mixing every 5 min) every 15 min with excitation and emission at 442 and 488 nm, respectively, for a period of 15 h using SpectraMax Gemini EM Microplate Reader (Molecular Devices). The sigmoid curves were obtained by subtracting the […] of the control and normalizing all the data points to their maximum value.
Thioflavin T (ThT) fluorescence assay. […] The concentration was determined by measuring the absorbance at 416 nm using the extinction coefficient of 26.6 mM^-1 cm^-1. […] The ThT fluorescence signal was measured at 37 °C (with mixing every 5 minutes) every 15 minutes with excitation and emission at 442 nm and 488 nm, respectively, for a time period of 15 hours using SpectraMax Gemini EM Microplate Reader (Molecular Devices). […]

The target in the next test is T3, Aβ40 peptides (Homo sapiens, UniProt P05067).
T3 construct: host or cells: E. coli BL21(DE3)
Nature of the test: Complexation of Aβ40 with bexarotene (UV absorbance titration at 280 nm). The class given is binding. The following applies: 156 μM Aβ40 in ammonium acetate titrated with 20 aliquots of 142 μM bexarotene; absorbance at 280 nm vs sum of individual absorbances. The method, then: This addition was repeated 20 times.
Complexation of Aβ40 with bexarotene. To determine the extinction coefficient of bexarotene at 280 nm, we measured the absorbance of bexarotene at 14 gradually decreasing concentrations (Fig. S2A). The stock solution of bexarotene (0.2 mM) was diluted in ammonium acetate to achieve the desired concentrations. Then, the correlation between absorbance and bexarotene concentration was plotted and the extinction coefficient was obtained from the slope of the best linear regression fit (ε280 = 10370 ± 83 M^-1 cm^-1).
This addition was repeated 20 times, and at each step, a spectrum was collected using DU 800 Spectrophotometer (Beckman Coulter).

The target of test [2] is T4, Aβ40 fibrils nucleated in the absence of bexarotene (normal fibrils) (Homo sapiens, UniProt P05067).
T4 construct: host or cells: E. coli BL21(DE3)
As to the kind of experiment: Time-resolved in situ AFM: growth rate of normal Aβ40 fibrils after adding bexarotene. Type of test: biochemical. The note with it: 3 μM Aβ40, bexarotene 0.1, 0.5 and 1.0 μM, 27 °C, about 30 measurements per concentration.
Procedure: We deposit fibrils preformed in the absence of bexarotene on mica and monitor the growth of the fibril tips along the fibril axis with respect to immobile reference points (Fig. 2B) in Aβ40 solutions with known concentrations. We evaluate the fibril growth rate as the slope of the time correlation of the fibril tip displacement (Fig. 2C) ([41]). […] Fibril growth comprises association of peptide chains to fibril tips.
To prepare samples for AFM growth rate measurements, 2 μl of second-generation normal (or bexarotene) fibrils was added to the fibril growth buffer. Urea (Sigma–Aldrich) was also added to the solution, to a final concentration of 1 M, if needed based on the experiments. The diluted fibril solution then was sonicated (6 W output) for 2 min with 15 s intervals on ice and was kept at 27 °C for at least 15 min to equilibrate the temperature. Then Aβ40 peptides were added to the fibril solution at a desired final concentration, and the total volume of the solution was adjusted to 1 ml. […]
To study the effect of bexarotene on normal and bexarotene fibril growth rates (Figs. 2D and 5D), first, a fibril suspension at 3 μM Aβ40 peptide concentration was prepared as described previously, without bexarotene, and the fibril growth was monitored with AFM in tapping mode for 15 to 30 min. […]

A further test has as its system Aβ42. The note with it: cited from earlier work.

T2 sequence (P05067 671-711): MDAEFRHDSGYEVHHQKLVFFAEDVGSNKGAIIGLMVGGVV
T1 sequence (P05067 671-711): as above
T3 sequence (P05067 671-711): as above
T4 sequence (P05067 671-711): as above

In the case of `C=C(c1ccc(C(=O)O)cc1)c1cc2c(cc1C)C(C)(C)CCC2(C)C` [bexarotene], in test [1], the “growth rate of bexarotene fibrils after adding bexarotene” value is given as “does not inhibit or promote the growth”. Further, the “initial period of negligible ThT fluorescence (fibril nucleation delay)” value on Aβ40 is given as “suppresses Aβ40 fibril nucleation”. In addition, at Aβ40 peptides, the “binding of bexarotene to Aβ40 monomers (complex formation)” value was “does not perceptibly bind”. Also, in test [2], the “average growth rate of normal fibrils after adding bexarotene” value is on record as “does not modify the average growth rates”. Further, in the test with Aβ42, the “binding of bexarotene to Aβ42” value is recorded as “undetectable binding”.
